# Results from US10167262B2, “Herbicidal substituted 3-arylpyrazoles” (FMC CORPORATION, priority 2014, dated 2019).
# Read-outs that look alike come from different tables or passages of the source.
# Legend:
# Type in all cases: in vivo
# [1] = system: barnyardgrass (Echinochloa crus-galli); test: Test A pre-/postemergence greenhouse herbicide test, visual injury rating 0-100; settings: for pest or weed control at 500 g/ha: 500 g ai/ha
# Procedure, shortened: (§1)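 Postemergence treatment targeted seedlings 2 to 10 cm high with one to two leaves, while preemergence treatment was a directed spray onto freshly planted loam/sand soil. Injury was scored visually about 10 days later.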
# [2] = system: velvetleaf (Abutilon theophrasti); test: as above; settings: for pest or weed control at 500 g/ha: 500 g ai/ha
# Procedure, shortened: as §1
# [3] = system: giant foxtail (Setaria faberii); test: as above; settings: for pest or weed control at 500 g/ha: 500 g ai/ha
# Procedure, shortened: as §1
# [4] = system: wheat (Triticum aestivum); test: as above; settings: for plant injury at 500 g/ha: 500 g ai/ha
# Procedure, shortened: as §1
# [5] = system: corn (Zea mays); test: as above; settings: for plant injury at 500 g/ha: 500 g ai/ha
# Procedure, shortened: as §1
# [6] = system: morningglory (Ipomoea spp.); test: as above; settings: for pest or weed control at 500 g/ha: 500 g ai/ha
# Procedure, shortened: as §1
# [7] = system: large (Lg) crabgrass (Digitaria sanguinalis); test: as above; settings: for pest or weed control at 500 g/ha: 500 g ai/ha
# Procedure, shortened: as §1
# [8] = system: pigweed (Amaranthus retroflexus); test: as above; settings: for pest or weed control at 500 g/ha: 500 g ai/ha
# Procedure, shortened: as §1
# [9] = system: yellow nutsedge (Cyperus esculentus); test: Test C pre-/postemergence greenhouse test, plant response rating 0-100; settings: Cyperus; for pest or weed control at 62 g/ha: 62 g ai/ha; for pest or weed control at 125 g/ha: 125 g ai/ha; for pest or weed control at 250 g/ha: 250 g ai/ha
# Procedure, shortened: (§2)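 Seeds were sown in a loam soil–sand blend and sprayed preemergence with test chemicals in a non-phytotoxic solvent mixture containing surfactant; postemergence plants in peat/vermiculite medium were treated at 2–18 cm (1- to 4-leaf stage). After 13 to 15 days in the greenhouse, injury was rated visually against untreated controls.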
# [10] = system: galium (catchweed bedstraw, Galium aparine); test: as above; settings: Galium; for pest or weed control at 62 g/ha: 62 g ai/ha; for pest or weed control at 125 g/ha: 125 g ai/ha; for pest or weed control at 250 g/ha: 250 g ai/ha
# Procedure, shortened: as §2
# [11] = system: Italian ryegrass (Lolium multiflorum); test: as above; settings: Lolium multiflorum; for pest or weed control at 62 g/ha: 62 g ai/ha; for pest or weed control at 125 g/ha: 125 g ai/ha; for pest or weed control at 250 g/ha: 250 g ai/ha
# Procedure, shortened: as §2
# [12] = system: ragweed (common ragweed, Ambrosia elatior); test: as above; settings: Ambrosia artemisiifolia; for pest or weed control at 62 g/ha: 62 g ai/ha; for pest or weed control at 125 g/ha: 125 g ai/ha; for pest or weed control at 250 g/ha: 250 g ai/ha
# Procedure, shortened: as §2
# [13] = system: large (Lg) crabgrass (Digitaria sanguinalis); test: as above; settings: Digitaria sanguinalis; for pest or weed control at 62 g/ha: 62 g ai/ha; for pest or weed control at 125 g/ha: 125 g ai/ha; for pest or weed control at 250 g/ha: 250 g ai/ha
# Procedure, shortened: as §2
# [14] = post-emergence, Postemergence, read-out: Plant response rating (0 to 100), Nutsedge, Yellow
# [15] = post-emergence, Postemergence, scale 0 to 100
# [16] = post-emergence, Postemergence, 500 g ai/ha, scale 0 to 100
# [17] = pre-emergence, Preemergence, read-out: Plant response rating, Nutsedge, Yellow
# [18] = post-emergence, Postemergence, read-out: Plant response rating (0 to 100), Galium
# [19] = pre-emergence, Preemergence, read-out: Plant response rating, Galium
# [20] = post-emergence, Postemergence, read-out: Plant response rating (0 to 100), Ryegrass, Italian
# [21] = pre-emergence, Preemergence, read-out: Plant response rating, Ryegrass, Italian
# [22] = post-emergence, Postemergence, read-out: Plant response rating (0 to 100), Ragweed
# [23] = pre-emergence, Preemergence, read-out: Plant response rating, Ragweed
# [24] = post-emergence, Postemergence, read-out: Plant response rating (0 to 100), Crabgrass, Large
# [25] = pre-emergence, Preemergence, read-out: Plant response rating, Crabgrass, Large
smiles,measurement,setting,value
"O=C(c1ccccc1)c1cn(CO)nc1-c1cc(Cl)cc(Cl)c1 [Compound 15, [3-(3,5-dichlorophenyl)-1-(hydroxymethyl)-1H-pyrazol-4-yl]phenylmethanone]",pest or weed control at 125 g/ha,"[1]; Echinochloa crus-galli, post-emergence, 240 h, Postemergence, 125 g ai/ha, read-out: Plant response rating (0 to 100 scale), Barnyardgrass",0%
same,pest or weed control at 500 g/ha,"[1]; Echinochloa crus-galli, post-emergence, 240 h, Postemergence, read-out: Plant response rating (0 to 100 scale), Barnyardgrass",0%
same,pest or weed control at 500 g/ha,"[1]; Echinochloa crus-galli, pre-emergence, 240 h, Preemergence, read-out: Plant response rating (0 to 100 scale), Barnyardgrass",0%
same,"Barnyardgrass plant response rating (0 = no effect, 100 = complete control)","[1]; Preemergence, 125 g ai/ha",0
same,pest or weed control at 125 g/ha,"[2]; Abutilon theophrasti, post-emergence, 240 h, Postemergence, 125 g ai/ha, read-out: Plant response rating (0 to 100 scale), Velvetleaf",80%
same,pest or weed control at 500 g/ha,"[2]; Abutilon theophrasti, post-emergence, 240 h, Postemergence, read-out: Plant response rating (0 to 100 scale), Velvetleaf",90%
same,pest or weed control at 500 g/ha,"[2]; Abutilon theophrasti, pre-emergence, 240 h, Preemergence, read-out: Plant response rating (0 to 100 scale), Velvetleaf",90%
same,"Velvetleaf plant response rating (0 = no effect, 100 = complete control)","[2]; Preemergence, 125 g ai/ha",40
same,"Foxtail, Giant plant response rating (0 = no effect, 100 = complete control)","[3]; Preemergence, 125 g ai/ha",0
same,pest or weed control at 125 g/ha,"[3]; Setaria faberi, post-emergence, 240 h, Postemergence, 125 g ai/ha, read-out: Plant response rating (0 to 100 scale), Foxtail, Giant",0%
same,pest or weed control at 500 g/ha,"[3]; Setaria faberi, post-emergence, 240 h, Postemergence, read-out: Plant response rating (0 to 100 scale), Foxtail, Giant",0%
same,pest or weed control at 500 g/ha,"[3]; Setaria faberi, pre-emergence, 240 h, Preemergence, read-out: Plant response rating (0 to 100 scale), Foxtail, Giant",0%
same,"Wheat plant response rating (0 = no effect, 100 = complete control)","[4]; Preemergence, 125 g ai/ha",0
same,plant injury at 125 g/ha,"[4]; Triticum aestivum, post-emergence, 240 h, Postemergence, 125 g ai/ha, read-out: Plant response rating (0 to 100 scale), Wheat",0%
same,plant injury at 500 g/ha,"[4]; Triticum aestivum, post-emergence, 240 h, Postemergence, read-out: Plant response rating (0 to 100 scale), Wheat",0%
same,plant injury at 500 g/ha,"[4]; Triticum aestivum, pre-emergence, 240 h, Preemergence, read-out: Plant response rating (0 to 100 scale), Wheat",0%
same,"Corn plant response rating (0 = no effect, 100 = complete control)","[5]; Preemergence, 125 g ai/ha",0
same,plant injury at 125 g/ha,"[5]; Zea mays, post-emergence, 240 h, Postemergence, 125 g ai/ha, read-out: Plant response rating (0 to 100 scale), Corn",0%
same,plant injury at 500 g/ha,"[5]; Zea mays, post-emergence, 240 h, Postemergence, read-out: Plant response rating (0 to 100 scale), Corn",0%
same,plant injury at 500 g/ha,"[5]; Zea mays, pre-emergence, 240 h, Preemergence, read-out: Plant response rating (0 to 100 scale), Corn",0%
same,pest or weed control at 125 g/ha,"[6]; Ipomoea, post-emergence, 240 h, Postemergence, 125 g ai/ha, read-out: Plant response rating (0 to 100 scale), Morningglory",0%
same,pest or weed control at 500 g/ha,"[6]; Ipomoea, post-emergence, 240 h, Postemergence, read-out: Plant response rating (0 to 100 scale), Morningglory",0%
same,pest or weed control at 500 g/ha,"[6]; Ipomoea, pre-emergence, 240 h, Preemergence, read-out: Plant response rating (0 to 100 scale), Morningglory",0%
same,"Morningglory plant response rating (0 = no effect, 100 = complete control)","[6]; Preemergence, 125 g ai/ha",0
same,pest or weed control at 125 g/ha,"[7]; Digitaria sanguinalis, post-emergence, 240 h, Postemergence, 125 g ai/ha, read-out: Plant response rating (0 to 100 scale), Crabgrass, Large",0%
same,pest or weed control at 500 g/ha,"[7]; Digitaria sanguinalis, post-emergence, 240 h, Postemergence, read-out: Plant response rating (0 to 100 scale), Crabgrass, Large",0%
same,pest or weed control at 500 g/ha,"[7]; Digitaria sanguinalis, pre-emergence, 240 h, Preemergence, read-out: Plant response rating (0 to 100 scale), Crabgrass, Large",0%
same,"Crabgrass, Large plant response rating (0 = no effect, 100 = complete control)","[7]; Preemergence, 125 g ai/ha",0
same,pest or weed control at 125 g/ha,"[8]; Amaranthus retroflexus, post-emergence, 240 h, Postemergence, 125 g ai/ha, read-out: Plant response rating (0 to 100 scale), Pigweed",80%
same,pest or weed control at 500 g/ha,"[8]; Amaranthus retroflexus, post-emergence, 240 h, Postemergence, read-out: Plant response rating (0 to 100 scale), Pigweed",90%
same,pest or weed control at 500 g/ha,"[8]; Amaranthus retroflexus, pre-emergence, 240 h, Preemergence, read-out: Plant response rating (0 to 100 scale), Pigweed",100%
same,"Pigweed plant response rating (0 = no effect, 100 = complete control)","[8]; Preemergence, 125 g ai/ha",20
same,pest or weed control at 62 g/ha,[9]; [14],0%
same,pest or weed control at 125 g/ha,[9]; [14],0%
same,pest or weed control at 250 g/ha,[9]; [15],0%
same,pest or weed control at 500 g/ha,[9]; [16],0%
same,pest or weed control at 31 g/ha,"[9]; pre-emergence, Preemergence, 31 g ai/ha",0%
same,pest or weed control at 62 g/ha,[9]; [17],0%
same,pest or weed control at 125 g/ha,[9]; [17],0%
same,pest or weed control at 250 g/ha,"[9]; pre-emergence, Preemergence",0%
same,pest or weed control at 62 g/ha,[10]; [18],0%
same,pest or weed control at 125 g/ha,[10]; [18],0%
same,pest or weed control at 250 g/ha,[10]; [15],10%
same,pest or weed control at 500 g/ha,[10]; [16],45%
same,pest or weed control at 31 g/ha,"[10]; pre-emergence, Preemergence, 31 g ai/ha, read-out: Plant response rating, Galium",0%
same,pest or weed control at 62 g/ha,[10]; [19],0%
same,pest or weed control at 125 g/ha,[10]; [19],0%
same,pest or weed control at 250 g/ha,"[10]; pre-emergence, Preemergence",0%
same,pest or weed control at 62 g/ha,[11]; [20],0%
same,pest or weed control at 125 g/ha,[11]; [20],0%
same,pest or weed control at 250 g/ha,[11]; [15],0%
same,pest or weed control at 500 g/ha,[11]; [16],0%
same,pest or weed control at 62 g/ha,[11]; [21],0%
same,pest or weed control at 125 g/ha,[11]; [21],0%
same,pest or weed control at 250 g/ha,"[11]; pre-emergence, Preemergence",0%
same,pest or weed control at 62 g/ha,[12]; [22],60%
same,pest or weed control at 125 g/ha,[12]; [22],75%
same,pest or weed control at 250 g/ha,[12]; [15],85%
same,pest or weed control at 500 g/ha,[12]; [16],85%
same,pest or weed control at 62 g/ha,[12]; [23],35%
same,pest or weed control at 125 g/ha,[12]; [23],95%
same,pest or weed control at 250 g/ha,"[12]; pre-emergence, Preemergence",100%
same,pest or weed control at 62 g/ha,[13]; [24],0%
same,pest or weed control at 125 g/ha,[13]; [24],0%
same,pest or weed control at 250 g/ha,[13]; [15],0%
same,pest or weed control at 500 g/ha,[13]; [16],0%
same,pest or weed control at 31 g/ha,"[13]; pre-emergence, Preemergence, 31 g ai/ha, read-out: Plant response rating, Crabgrass, Large",0%
same,pest or weed control at 62 g/ha,[13]; [25],0%
same,pest or weed control at 125 g/ha,[13]; [25],0%
same,pest or weed control at 250 g/ha,"[13]; pre-emergence, Preemergence",0%
